Laboratory results as given in patent publication US6407088B1 (priority 2000, dated 2002).
“And” between values parts separate entries of the source, which are not always exact repeats. Equal entries are not always repeated. “Also recorded” adds a separate entry of the source. Where two headings read alike, the source gives them in different places. Marks after values point to notes of the source that are not given here.

Legend:
[1] = test system: rabbits' quadriceps femoris muscles
Salmonella TA98 = conditions: Dexon 50.0, −S9; control 36 ± 5
Salmonella TA100 = conditions: Dexon 50.0, −S9; control 130 ± 11
Salmonella TA97 = conditions: Dexon 50.0, −S9; control 138 ± 18
[2] = test system: Chinese hamster lung (CHL) cells; format: cell-based; conditions: for Chromosomal aberration rate (%): MMC 0.25 μg/mL, no metabolic activation, P<0.01
Protocol: The Chinese hamster lung (CHL) cells were exposed to tetrodotoxin at the concentrations of 5.0, 10.0, and 20.0 μg/mL for 24 or 48 hours in the absence of Sg activation and for 6 hours in the presence of S9 activation.

Kunming mice [3] = assay: Acetic acid-induced writhing test in mice; format: in vivo
mice [4] = assay: Analgesic time-effect relation in acetic acid-induced writhing test in mice; format: in vivo; conditions: for IR, inhibition rate / AWI, average writhing incidence: aspirin ig
Wistar rats = assay: Formalin induced inflammation test in rats; conditions: rat, in vivo
mouse's marrow cells = conditions: in vivo
rabbits = test system: rabbits; set-up: species or system New Zealand white rabbits; conditions: rabbit, in vivo, iv
[5] = test system: 2% red blood cell (RBC) suspension; format: cell-based, rabbit
Rhesus monkeys = conditions: rhesus monkey, in vivo
[6] = test system: TTX-sensitive sodium channel (TTX-S); conditions: cited from earlier work
Shanghai mice = conditions: mouse, in vivo
mice [7] = conditions: mouse, in vivo
[8] = test system: late term cancer patients; conditions: human, in vivo
rats [9] = conditions: rat, in vivo
Kunming mice [10] = conditions: mouse, in vivo
hPN3 = hPN3 (Homo sapiens, UniProt Q9Y5Y9); conditions: cited from earlier work
Chain of hPN3 (Q9Y5Y9 whole entry, looked up): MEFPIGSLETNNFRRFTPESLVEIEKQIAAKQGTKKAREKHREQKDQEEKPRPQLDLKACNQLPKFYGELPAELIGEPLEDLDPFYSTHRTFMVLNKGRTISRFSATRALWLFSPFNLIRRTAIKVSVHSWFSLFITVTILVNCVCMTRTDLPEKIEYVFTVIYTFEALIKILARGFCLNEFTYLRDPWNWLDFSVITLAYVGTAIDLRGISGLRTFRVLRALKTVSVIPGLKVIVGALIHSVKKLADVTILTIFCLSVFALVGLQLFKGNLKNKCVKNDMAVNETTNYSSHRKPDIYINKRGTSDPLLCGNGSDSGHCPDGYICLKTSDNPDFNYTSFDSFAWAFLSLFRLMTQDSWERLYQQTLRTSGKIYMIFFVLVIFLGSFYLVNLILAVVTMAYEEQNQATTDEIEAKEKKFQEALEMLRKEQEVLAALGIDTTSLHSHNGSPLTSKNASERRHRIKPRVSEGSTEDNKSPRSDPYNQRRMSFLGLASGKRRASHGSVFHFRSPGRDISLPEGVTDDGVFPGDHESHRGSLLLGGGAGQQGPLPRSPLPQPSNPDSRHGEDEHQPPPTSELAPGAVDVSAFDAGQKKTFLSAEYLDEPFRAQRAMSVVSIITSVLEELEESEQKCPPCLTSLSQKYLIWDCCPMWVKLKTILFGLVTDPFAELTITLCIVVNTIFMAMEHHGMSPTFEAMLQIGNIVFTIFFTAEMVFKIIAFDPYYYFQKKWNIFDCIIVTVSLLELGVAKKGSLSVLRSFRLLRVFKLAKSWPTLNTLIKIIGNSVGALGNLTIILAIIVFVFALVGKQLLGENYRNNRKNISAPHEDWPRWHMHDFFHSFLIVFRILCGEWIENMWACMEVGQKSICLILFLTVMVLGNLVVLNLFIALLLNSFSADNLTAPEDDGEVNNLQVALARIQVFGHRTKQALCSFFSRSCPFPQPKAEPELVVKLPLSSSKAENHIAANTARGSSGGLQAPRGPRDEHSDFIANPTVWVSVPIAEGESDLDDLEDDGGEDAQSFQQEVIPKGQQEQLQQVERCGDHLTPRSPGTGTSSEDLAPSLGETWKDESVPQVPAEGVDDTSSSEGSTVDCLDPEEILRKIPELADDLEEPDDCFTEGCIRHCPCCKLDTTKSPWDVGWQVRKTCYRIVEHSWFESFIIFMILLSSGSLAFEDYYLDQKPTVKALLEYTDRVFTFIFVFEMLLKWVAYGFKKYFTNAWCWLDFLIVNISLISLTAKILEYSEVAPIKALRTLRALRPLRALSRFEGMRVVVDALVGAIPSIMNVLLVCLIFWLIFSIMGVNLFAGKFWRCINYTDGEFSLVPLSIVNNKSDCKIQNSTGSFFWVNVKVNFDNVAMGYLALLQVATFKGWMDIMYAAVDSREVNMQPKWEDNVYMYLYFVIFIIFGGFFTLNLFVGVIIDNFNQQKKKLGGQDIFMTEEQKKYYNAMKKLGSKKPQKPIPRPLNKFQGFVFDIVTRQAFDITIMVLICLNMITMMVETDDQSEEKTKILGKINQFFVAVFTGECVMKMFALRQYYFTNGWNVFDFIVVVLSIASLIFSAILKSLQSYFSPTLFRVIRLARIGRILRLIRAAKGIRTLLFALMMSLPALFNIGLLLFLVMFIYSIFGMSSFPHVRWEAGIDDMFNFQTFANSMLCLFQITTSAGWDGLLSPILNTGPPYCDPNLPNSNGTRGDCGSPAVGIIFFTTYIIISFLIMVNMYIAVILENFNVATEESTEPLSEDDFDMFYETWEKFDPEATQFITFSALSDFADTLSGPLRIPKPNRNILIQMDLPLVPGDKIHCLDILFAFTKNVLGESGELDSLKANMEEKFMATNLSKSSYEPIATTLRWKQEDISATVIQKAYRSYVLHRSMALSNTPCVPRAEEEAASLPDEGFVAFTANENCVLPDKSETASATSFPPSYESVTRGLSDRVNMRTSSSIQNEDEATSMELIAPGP

anesthetized dogs = conditions: dog, in vivo
[11] = biological target: TTX-resistant sodium channel (TTX-R) (Rattus norvegicus, UniProt Q62968); conditions: cited from earlier work
Chain of TTX-resistant sodium channel (TTX-R) (Q62968 whole entry, looked up): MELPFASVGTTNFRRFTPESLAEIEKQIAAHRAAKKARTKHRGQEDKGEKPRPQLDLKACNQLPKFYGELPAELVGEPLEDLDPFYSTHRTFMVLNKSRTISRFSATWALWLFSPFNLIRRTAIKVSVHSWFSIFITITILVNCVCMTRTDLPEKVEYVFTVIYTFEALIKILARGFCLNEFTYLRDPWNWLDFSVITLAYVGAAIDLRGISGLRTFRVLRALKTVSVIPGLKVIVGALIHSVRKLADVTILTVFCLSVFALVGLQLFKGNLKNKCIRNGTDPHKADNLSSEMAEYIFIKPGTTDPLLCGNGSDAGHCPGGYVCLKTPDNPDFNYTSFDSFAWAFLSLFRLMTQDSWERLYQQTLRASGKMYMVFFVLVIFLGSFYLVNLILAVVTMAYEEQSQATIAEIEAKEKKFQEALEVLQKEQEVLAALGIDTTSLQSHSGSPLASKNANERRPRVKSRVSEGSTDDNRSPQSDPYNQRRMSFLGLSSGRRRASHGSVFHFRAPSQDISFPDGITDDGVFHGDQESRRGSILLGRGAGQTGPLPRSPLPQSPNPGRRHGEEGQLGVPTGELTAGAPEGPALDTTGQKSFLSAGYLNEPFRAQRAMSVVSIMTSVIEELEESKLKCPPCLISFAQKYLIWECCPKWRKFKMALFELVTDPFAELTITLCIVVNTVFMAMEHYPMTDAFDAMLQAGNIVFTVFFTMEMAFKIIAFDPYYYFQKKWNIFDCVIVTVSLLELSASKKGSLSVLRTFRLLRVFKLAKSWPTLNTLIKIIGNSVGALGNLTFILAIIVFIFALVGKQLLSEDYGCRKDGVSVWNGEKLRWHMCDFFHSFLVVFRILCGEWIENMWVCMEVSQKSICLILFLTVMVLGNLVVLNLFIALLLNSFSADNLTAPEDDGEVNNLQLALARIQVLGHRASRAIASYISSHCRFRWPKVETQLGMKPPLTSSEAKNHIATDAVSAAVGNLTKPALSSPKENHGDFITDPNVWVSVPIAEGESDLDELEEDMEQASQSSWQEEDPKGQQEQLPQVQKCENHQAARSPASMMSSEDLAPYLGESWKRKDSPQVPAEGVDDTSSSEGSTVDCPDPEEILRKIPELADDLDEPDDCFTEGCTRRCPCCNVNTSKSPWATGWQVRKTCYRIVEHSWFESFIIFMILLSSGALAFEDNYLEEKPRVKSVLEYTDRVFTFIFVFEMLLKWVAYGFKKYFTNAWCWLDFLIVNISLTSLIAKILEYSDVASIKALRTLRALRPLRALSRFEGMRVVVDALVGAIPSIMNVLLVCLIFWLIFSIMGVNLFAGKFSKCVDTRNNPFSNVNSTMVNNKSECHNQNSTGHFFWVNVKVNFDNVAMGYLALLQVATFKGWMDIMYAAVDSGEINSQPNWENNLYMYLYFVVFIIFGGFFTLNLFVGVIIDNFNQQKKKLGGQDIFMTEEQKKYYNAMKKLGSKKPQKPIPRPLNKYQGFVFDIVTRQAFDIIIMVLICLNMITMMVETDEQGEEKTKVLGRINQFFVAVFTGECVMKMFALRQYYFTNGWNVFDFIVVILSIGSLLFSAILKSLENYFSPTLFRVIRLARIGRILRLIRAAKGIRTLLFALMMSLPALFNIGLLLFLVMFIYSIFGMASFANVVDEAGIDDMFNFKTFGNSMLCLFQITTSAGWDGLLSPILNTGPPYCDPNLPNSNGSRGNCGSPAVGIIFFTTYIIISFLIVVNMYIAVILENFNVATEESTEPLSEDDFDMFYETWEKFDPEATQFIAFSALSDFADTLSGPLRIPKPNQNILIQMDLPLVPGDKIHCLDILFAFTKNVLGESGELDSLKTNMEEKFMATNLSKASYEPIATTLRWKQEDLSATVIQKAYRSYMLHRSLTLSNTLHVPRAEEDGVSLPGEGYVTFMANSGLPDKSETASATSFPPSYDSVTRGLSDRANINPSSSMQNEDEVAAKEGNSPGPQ

monkeys [12] = conditions: rhesus monkey, in vivo
monkeys [13] = conditions: rhesus monkey, in vivo; remark: listed apart in the source
Kunming mice [14] = conditions: mouse, in vivo; remark: listed apart in the source
rats [15] = assay: Tail-flick test in rats; conditions: rat, in vivo
Kunming mice [16] = conditions: mouse, in vivo; remark: listed apart in the source
[17] = quadriceps femoris, 1 mL im, 48 hours
[18] = Aspirin 100 mg/kg, Table 5 (im)
[19] = Aspirin 200 mg/kg, Table 5 (im)
[20] = Aspirin 300 mg/kg, Table 5 (im)
[21] = Aspirin 400 mg/kg, Table 5 (im)

CC1(C)S[C@@H]2[C@H](NC(=O)Cc3ccccc3)C(=O)N2[C@H]1C(=O)[O-].[K+] [Penicillin G-K, penicillin G-K]
Grade for stimulation reaction, Left side, rabbit 1 [1, 17]: 4
Grade for stimulation reaction, Right side, rabbit 1 [1, 17]: 4
Grade for stimulation reaction, Right side, rabbit 2 [1, 17]: 4
Grade for stimulation reaction, Left side, rabbit 2 ([1]; rabbit, in vivo): 4
Sum of grades ([1]; two rabbits, both sides): 16

O=C1c2cccc(O)c2C(=O)c2c(O)cccc21 [DAN]
Number of revertant Salmonella colonies, TA102 (Salmonella TA102; DAN 100.0, +S9): 906 ± 69
Number of revertant Salmonella colonies, TA102 (Salmonella TA102; DAN 100.0, −S9): 379 ± 99

CN(C)c1ccc(N=NS(=O)(=O)[O-])cc1.[Na+] [Dexon]
Number of revertant Salmonella colonies, TA102 (Salmonella TA102; Dexon 50.0, −S9, control 270 ± 45): 858 ± 79
Number of revertant Salmonella colonies, TA98 (Salmonella TA98): 604 ± 86
Number of revertant Salmonella colonies, TA100 (Salmonella TA100): 562 ± 50
Number of revertant Salmonella colonies, TA97 (Salmonella TA97): 1567 ± 315

CO[C@@]12[C@H](COC(N)=O)C3=C(C(=O)C(C)=C(N)C3=O)N1C[C@@H]1N[C@@H]12 [MMC]
Chromosomal aberration rate (%) ([2]; 24 hours): 72%
Chromosomal aberration rate (%) ([2]; 48 hours): 99%

CC(=O)Oc1ccccc1C(=O)O [Aspirin]
Percentage of inhibition (%) (Kunming mice [3]; Aspirin 100 mg/kg, Table 4 (sc)): 18.9%
Average Writhing Incidents (Kunming mice [3]; [18]): 22.1
Inhibition Rate % (Kunming mice [3]; [18]): 21.7%
Percentage of inhibition (%) (Kunming mice [3]; Aspirin 200 mg/kg, Table 4 (sc)): 46.2%
Average Writhing Incidents (Kunming mice [3]; [19]): 14.3
Inhibition Rate % (Kunming mice [3]; [19]): 49.3%
Percentage of inhibition (%) (Kunming mice [3]; Aspirin 300 mg/kg, Table 4 (sc)): 69.4%
Average Writhing Incidents (Kunming mice [3]; [20]): 7.2
Inhibition Rate % (Kunming mice [3]; [20]): 74.4%
Percentage of inhibition (%) (Kunming mice [3]; Aspirin 400 mg/kg, Table 4 (sc)): 85.4%
Average Writhing Incidents (Kunming mice [3]; [21]): 2.7
Inhibition Rate % (Kunming mice [3]; [21]): 90.6%
ID50 and 95% Confidence Interval (Kunming mice [3]; Aspirin, Table 4 (sc)): 198.8 mg/kg
ID50 (95% Confidence Interval) (Kunming mice [3]; Aspirin, Table 5 (im)): 183.8 mg/kg
duration of analgesic effect (mice [4]; aspirin 400 mg/kg po): about 2 hours
onset of therapeutic effect (mice [4]; aspirin 400 mg/kg po): 20 min
time to peak effect after dosing (mice [4]; aspirin 400 mg/kg po): 30 min
IR, inhibition rate (mice [4]; Table 10, 10 min): 38.4
IR, inhibition rate (mice [4]; Table 10, 20 min): 41.1
AWI, average writhing incidence (mice [4]; Table 10, 30 min): 1.98
IR, inhibition rate (mice [4]; Table 10, 30 min): 89.2
AWI, average writhing incidence (mice [4]; Table 10, 40 min): 4.8
IR, inhibition rate (mice [4]; Table 10, 40 min): 74.1
AWI, average writhing incidence (mice [4]; Table 10, 70 min): 6.3
IR, inhibition rate (mice [4]; Table 10, 70 min): 65.9
IR, inhibition rate (mice [4]; Table 10, 100 min): 37.1
IR, inhibition rate (mice [4]; Table 10, 130 min): 36.2
AWI, average writhing incidence (mice [4]; Table 12 (NS 28.2 ± 14.3), 10 min after dosing): 19.5
IR, inhibition rate (mice [4]; Table 12, 10 min): 30.8
AWI, average writhing incidence (mice [4]; Table 12, 20 min): 17.7
IR, inhibition rate (mice [4]; Table 12, 20 min): 37.2
AWI, average writhing incidence (mice [4]; Table 12, 30 min): 5.5
IR, inhibition rate (mice [4]; Table 12, 30 min): 80.6
AWI, average writhing incidence (mice [4]; Table 12, 45 min): 8.2
IR, inhibition rate (mice [4]; Table 12, 45 min): 70.9
AWI, average writhing incidence (mice [4]; Table 12, 60 min): 10.2
IR, inhibition rate (mice [4]; Table 12, 60 min): 63.8
AWI, average writhing incidence (mice [4]; Table 12, 90 min): 14.4
IR, inhibition rate (mice [4]; Table 12, 90 min): 49.0
AWI, average writhing incidence (mice [4]; Table 12, 120 min): 19.3
IR, inhibition rate (mice [4]; Table 12, 120 min): 31.6
AWI, average writhing incidence (mice [4]; Table 12, 150 min): 22.8
IR, inhibition rate (mice [4]; Table 12, 150 min): 19.3

N=C1NC(O)C2C3OC4(O)OC(C(O)C2(N1)C4O)C3(O)CO (stereo not shown) [TTX, octahydro-12-(hydroxymethyl)-2-imino-5,9:7,10a-dimethano-10aH-(1,3)dioxocino(6,5-d)-pyrimidine-4,7,10,11,12-pentol]
analgesic effect, times stronger than morphine (Wistar rats): 2900 times
analgesic effect, times stronger than morphine (Wistar rats; sc): 3200 times
micronucleus rate (mouse's marrow cells): 4.3 ‰
analgesic effect, times stronger than meperidine (Kunming mice [3]; mouse, in vivo): 670 times
vascular stimulation (rabbits): did not produce any pronounced vascular stimulation
duration of analgesic effect (mice [4]; mouse, in vivo, sc): about 5 hours
onset of therapeutic effect (mice [4]; mouse, in vivo, sc): 15 min
time to peak effect after dosing (mice [4]; mouse, in vivo, sc): 60 min
in vitro haemolyzation [5]: did not induce in vitro haemolyzation
decrease of AChE activity (Rhesus monkeys): 41.2%
toxic symptoms (Rhesus monkeys): evident toxic symptoms
IC50 [6]: 0.001 to 0.02 µM
embryotoxicity or teratogenic action (Shanghai mice): No embryotoxicity or teratogenic action
Jumping Frequency (X ± SD) (mice [7]): 0.70 ± 2.70 and 1.30 ± 3.90
Jumping Incidence (%) (mice [7]; sc): 10.0*# %
Side Effect(s) [8]: Numbness; also recorded: Numbness,; also recorded: nausea, vomit
addiction or withdrawal [8]: No signs of addiction or withdrawal
blood pressure decrease [8]: 10-15 mm Hg
duration of analgesic effect / total pain relief [8]: 20 to 30 days
duration of numbness or tingling [8]: at most 30 min
onset of numbness or tingling in lips, tongue tip, fingers and toes [8]: 10 to 20 min
pain at the conclusion of treatment [8]: entirely eliminated
pain intensity of all subjects [8]: reduced to 0 in all but one patient who recorded a 1
quality of life interference [8]: 0
quality of life score [8]: 6
time to noticeable pain relief, some subjects [8]: 5 min
time to pain relief (various degrees), all subjects [8]: ≤ 30 min
time to recovery of blood pressure [8]: 40 to 50 min
time to take effect [8]: 5 to 30 min
Score of body weight loss (Mean ± SD) (rats [9]): 0.00 ± 0.00
Score of withdrawal symptoms (Mean ± SD) (rats [9]; sc): 0.30 ± 0.90 and 0.20 ± 0.60
Sleeping time (X ± SD) (Kunming mice [10]; ip): 35.1 ± 26.2 ||| min and 36.3 ± 16.7 ||| min and 26.6 ± 22.5 ||| min
IC50 (hPN3): 80 µM
effect on blood pressure, heart rate, electrocardiogram, respiratory rate and depth (anesthetized dogs): did not significantly affect
animals with hypersensitive reaction (+) (Hartley guinea pigs; guinea pig, in vivo): 0/8
animals with hypersensitive reaction (++) (Hartley guinea pigs; guinea pig, in vivo): 0/8
animals with hypersensitive reaction (−) (Hartley guinea pigs; guinea pig, in vivo): 8/8
IC50 [11]: ~100 µM
Percentage change in body weight, Overall Mean X ± SD (monkeys [12]): 3.2
withdrawal symptom score (Mean ± SD) (monkeys [12]): 0.0
Body Weight Loss (%) (monkeys [13]): 0.4 ± 0.8 %
Score of Withdrawal Symptoms (monkeys [13]): 2.6 ± 4.6
toxic reaction on dose escalation (monkeys [13]): significant toxic reaction (vomiting)
chromosomal aberration rates [2]: 0˜2%

Cn1c(=O)c2c(ncn2C)n(C)c1=O [Caffeine]
Number of autonomic mobility (X ± SD) (Kunming mice [14]): 777 ± 178 •••

O=P1(N(CCCl)CCCl)NCCCO1 (stereo not shown) [cyclophosphamide]
Number of Micronucleus cells (mouse's marrow cells): 279
teratogenic rate (Shanghai mice; female, Shanghai): 100%

CCOC(=O)C1(c2ccccc2)CCN(C)CC1 [Meperidine]
ID50 and 95% Confidence Interval (Kunming mice [3]; mouse, in vivo, sc): 1.8 mg/kg

CN1CC[C@]23c4c5ccc(O)c4O[C@H]2[C@@H](O)C=C[C@H]3[C@H]1C5 [Morphine, morphine]
ID50 (95% CI) (Wistar rats): 2.74 mg/kg
ID50 (95% CI) (Wistar rats; sc): 2.63 (2.32 ˜ 2.98) mg/kg
Latency time (rats [15]): >20 min
Jumping Frequency (X ± SD) (mice [7]): 19.7 ± 16.3
Jumping Incidence (%) (mice [7]): 90.0%
Score of body weight loss (Mean ± SD) (rats [9]): 10.00 ± 2.60
Score of withdrawal symptoms (Mean ± SD) (rats [9]): 7.38 ± 1.16
Percentage change in body weight, Overall Mean X ± SD (monkeys [12]): −6.1
Score of Withdrawal Symptoms (monkeys [13]; Guangxi): 61.0 ± 2.6
Body Weight Loss (%) (monkeys [13]): 6.6 ± 1.7%

CN1C(=O)CN=C(c2ccccc2)c2cc(Cl)ccc21 [Diazepam]
Number of positively effected animals (Kunming mice [16]): 8 ***
Number of autonomic mobility (X ± SD) (Kunming mice [14]): 323 ± 203 |||
Sleeping time (X ± SD) (Kunming mice [10]; Kunming): 146.2 ± 53. ||| min

10% bovine serum albumin: 10% bovine serum albumin solution, positive control in hypersensitivity test
animals with hypersensitive reaction (+) (Hartley guinea pigs; (+) scratching nose, pilo-erection, uneasiness, sneezing, shortness of breath, mild cyanosis, animals/8): 4/8
animals with hypersensitive reaction (++) (Hartley guinea pigs; (++) pilo-erection, manifest dyspnea, cyanosis, weakness of limbs, animals/8): 3/8
animals with hypersensitive reaction (+++) (Hartley guinea pigs; (+++) Death, animals/8): 1/8
animals with hypersensitive reaction (−) (Hartley guinea pigs; guinea pig, in vivo): 0/8
